Measurements from patent US10131690B2, “C6S specific transporter molecules” (PHI PHARMA SA, priority 2014, dated 2018).
Where a SMILES comes first, the peptide text is derived from it. Where no end group is shown, it is not given here. [ ]: non-standard residue; d: D form. 3'AdT = not defined here

Columns and labels:
[1] = stability in fetal calf serum (estimation of in vivo stability); format: in vitro ADME; conditions: 37° C.; for degradation in fetal calf serum: 6 hr
Method: The stability of peptides of the invention was estimated by mixing the peptides with fetal calf serum and incubating at 37° C. for 6 hr. Samples were tested at both 0 and 6 hours.

MDCK cells = assay: viability of MDCK cell cultures by trypan blue exclusion; format: cell-based; conditions: 96 hour incubation, 0.5 μM to 10 μM, FIG. 9
Method: The activity of peptides of the invention as targeting moieties was tested in vitro in preliminary studies using cells lines expressing C6S. The nucleoside analog 3′ amino deoxythymidine (3′AdT) was conjugated to the amino-terminus of the peptide “RYK” (RYKvFIKYRh (SEQ ID NO:8)) using a single D-Glu residue (3′AdT-e-RYK).
Confluent cultures of MDCK were passaged at 1/20 dilution and exponentionally growing cells were incubated for 96 hours with concentrations of the nucleoside analog conjugates ranging from 0.5 μM to 10 μM. Viability was subsequently assessed using trypan blue exclusion.

[2] = tested on: heparan sulfate (HS), chondroitin-4-sulfate (C4S), keratin sulfate (KS), HA; assay: modified ELISA, binding to C6S compared with other proteoglycans; conditions: KS (FIG. 5), HS and HA (FIG. 6B)
Method: (§1) The binding of the nine-mer peptides of the invention to C6S as predicted by the models, in particular, as compared to the binding to other proteoglycans was tested using a modified ELISA protocol. ELISA plates were coated overnight with 1 mg/ml of heparin sulfate (HS), chondroitin-4-sulfate (C4S), chondroitin-6-sulfate (C6S) or keratin sulfate (KS) in PBS. The wells were then washed with PBS and incubated for 1 hour at room temperature with 1 mg/ml of an exemplary peptide of the invention having the sequence RYKvFIKYRh (“RYK-C6S”; SEQ ID NO:7) or a standard TAT peptide. The plates were then thoroughly washed with PBS and subsequently photographed with a LUMASCOPE™ luminescent microscope. Images were then quantified using the ImageJ software (FIG. 5).
(§2) The impact of sequence variation on specific binding was also investigated with select peptides using the above described modified ELISA.

[3] = tested on: chondroitin-6-sulfate (C6S); assay: modified ELISA, binding of peptides to plate-coated C6S; conditions: plates coated with 1 mg/ml C6S; 1 mg/ml peptide, 1 hour, room temperature; FIG. 5, 6A, 6B
Method: as §1
The same modified ELISA protocol was used to examine the impact on the specific binding to C6S by modifying the freely-selectable positions 2, 4, 6, 8 and (5 or 7).
as §2

## N=C(N)NCCC[C@H](NC(=O)[C@H](Cc1ccc(O)cc1)NC(=O)[C@H](CCCCN)NC(=O)[C@H](Cc1c[nH]c2ccccc12)NC(=O)[C@H](CO)NC(=O)CNC(=O)[C@H](CCCCN)NC(=O)[C@H](Cc1ccccc1)NC(=O)[C@@H](N)CCCNC(=N)N)C(=O)O [RFKGSWKYR] (H-RFKGSWKYR-OH; N-terminus and C-terminus assumed)
[1]
  degradation in fetal calf serum: completely degraded

## CC[C@H](C)[C@H](NC(=O)[C@H](Cc1ccccc1)NC(=O)[C@H](NC(=O)[C@H](CCCCN)NC(=O)[C@H](Cc1ccc(O)cc1)NC(=O)[C@@H](N)CCCNC(=N)N)C(C)C)C(=O)N[C@@H](CCCCN)C(=O)N[C@@H](Cc1ccc(O)cc1)C(=O)N[C@@H](CCCNC(=N)N)C(=O)N[C@H](Cc1c[nH]cn1)C(=O)O [RYK-C6S, RYKvFIKYRh] (H-RYK[dV]FIKYR[dH]-OH; N-terminus and C-terminus assumed)
[1]
  degradation in fetal calf serum: no degradation
[1]; fetal calf serum, 6 hours
  remaining at 6 h: 100%

## D-linked conjugate: 3′AdT conjugated to the amino-terminus of the peptide RYK (RYKvFIKYRh) using a single D-Glu residue ({3'AdT}-[dE]RYK[dV]FIKYR[dH]; reading uncertain; also: printed as RYKvFIKYRh)
MDCK cells
  concentration with substantial effects on viability: ≥ 0.5 µM

## RGKPRFYQR
[2]
  selectivity of binding for C6S over other proteoglycans: either eliminated binding activity to any proteoglycan or eliminated the specificity to C6S

## RKKRRQRR (Artificial TAT peptide control) [standard TAT peptide]
[3]
  binding to C6S: increases in binding that were likely non-selective

## RRRRRRRRR [pure arginine 9-mer]
[3]
  binding to C6S: increases in binding that were likely non-selective

## RYFvRIKYR (RYF[dV]RIKYR) [control peptide, replacement of Lys3 with a Phe]
[3]
  binding to C6S: eliminated binding to C6S

## RYKvFIKPRh (RYK[dV]FIKPR[dH]) [control peptide with proline at position 8]
[3]
  binding to C6S: eliminated binding activity
